Data published in US20260262643A1, “HERBICIDAL BENZOXAZINES” (FMC CORPORATION, priority 2022, published 2026).

How the values were obtained:
kochia [1] = test: Test C postemergence; assay type: in vivo, Bassia scoparia; settings: 10 days, 0 to 100 scale (0 no effect, 100 complete control)
Procedure, shortened: (§1)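 Seeds in loam–sand blend received preemergence directed soil spray of test chemicals in non-phytotoxic solvent with surfactant; postemergence treatment was applied at one- to two-leaf stage (2–10 cm). After 10 days in greenhouse, injury rated visually versus untreated controls, 0 (no effect) to 100 (complete control).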

ryegrass, Italian [2] = test: Test C preemergence; assay type: in vivo, Lolium multiflorum
Procedure, shortened: as §1

ragweed [3] = test: Test C postemergence; assay type: in vivo, Ambrosia artemisiifolia; settings: 10 days, 0 to 100 scale (0 no effect, 100 complete control)
Procedure, shortened: as §1

barnyardgrass [4] = test: Test C preemergence; assay type: in vivo, Echinochloa crusgalli
Procedure, shortened: as §1

oat, wild [5] = test: Test C preemergence; assay type: in vivo, Avena fatua
Procedure, shortened: as §1

ducksalad = test: Test D flooded paddy test; assay type: in vivo, Heteranthera limosa; settings: 250 g ai/ha, applied to paddy water, visual rating after 13 to 14 days, scale 0 to 100 (0 no effect, 100 complete control)
Procedure, shortened: (§2)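 Compounds go straight into paddy water over 2-leaf plants in pots flooded to 3 cm. Greenhouse holding lasts 13 to 14 days. Injury is scored by eye against controls from 0 (none) to 100 (complete control).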

pigweed, palmer [6] = test: Test C postemergence; assay type: in vivo, Amaranthus palmeri; settings: 10 days, 0 to 100 scale (0 no effect, 100 complete control)
Procedure, shortened: as §1

kochia [7] = test: Test C preemergence; assay type: in vivo, Bassia scoparia
Procedure, shortened: as §1

blackgrass [8] = test: Test C postemergence; assay type: in vivo, Alopecurus myosuroides; settings: 10 days, 0 to 100 scale (0 no effect, 100 complete control)
Procedure, shortened: as §1

ragweed [9] = test: Test C preemergence; assay type: in vivo, Ambrosia artemisiifolia
Procedure, shortened: as §1

pigweed, palmer [10] = test: Test C preemergence; assay type: in vivo, Amaranthus palmeri
Procedure, shortened: as §1

horseweed = test: Test C postemergence; assay type: in vivo, Erigeron canadensis; settings: 10 days, 0 to 100 scale (0 no effect, 100 complete control)
Procedure, shortened: as §1

green foxtail [11] = test: Test C preemergence; assay type: in vivo, Setaria viridis
Procedure, shortened: as §1

galium = test: Test C postemergence; assay type: in vivo, Galium aparine; settings: 10 days, 0 to 100 scale (0 no effect, 100 complete control)
Procedure, shortened: as §1

ryegrass, Italian [12] = test: Test C postemergence; assay type: in vivo, Lolium multiflorum; settings: 10 days, 0 to 100 scale (0 no effect, 100 complete control)
Procedure, shortened: as §1

rice = test: Test D flooded paddy test; assay type: in vivo, Oryza sativa; settings: 250 g ai/ha, applied to paddy water, visual rating after 13 to 14 days, scale 0 to 100 (0 no effect, 100 complete control)
Procedure, shortened: as §2

wheat [13] = test: Test C preemergence; assay type: in vivo, Triticum aestivum
Procedure, shortened: as §1

oat, wild [14] = test: Test C postemergence; assay type: in vivo, Avena fatua; settings: 10 days, 0 to 100 scale (0 no effect, 100 complete control)
Procedure, shortened: as §1

barnyardgrass [15] = test: Test C postemergence; assay type: in vivo, Echinochloa crusgalli; settings: 10 days, 0 to 100 scale (0 no effect, 100 complete control)
Procedure, shortened: as §1

wheat [16] = test: Test C postemergence; assay type: in vivo, Triticum aestivum; settings: 10 days, 0 to 100 scale (0 no effect, 100 complete control)
Procedure, shortened: as §1

soybean [17] = test: Test C preemergence; assay type: in vivo, Glycine max
Procedure, shortened: as §1

blackgrass [18] = test: Test C preemergence; assay type: in vivo, Alopecurus myosuroides
Procedure, shortened: as §1

corn [19] = test: Test C postemergence; assay type: in vivo, Zea mays; settings: 10 days, 0 to 100 scale (0 no effect, 100 complete control)
Procedure, shortened: as §1

green foxtail [20] = test: Test C postemergence; assay type: in vivo, Setaria viridis; settings: 10 days, 0 to 100 scale (0 no effect, 100 complete control)
Procedure, shortened: as §1

corn [21] = test: Test C preemergence; assay type: in vivo, Zea mays
Procedure, shortened: as §1

barnyardgrass [22] = test: Test D flooded paddy test; assay type: in vivo, Echinochloa crus-galli; settings: 250 g ai/ha, applied to paddy water, visual rating after 13 to 14 days, scale 0 to 100 (0 no effect, 100 complete control)
Procedure, shortened: as §2

sedge, umbrella = test: Test D flooded paddy test; assay type: in vivo, Cyperus difformis; settings: 250 g ai/ha, applied to paddy water, visual rating after 13 to 14 days, scale 0 to 100 (0 no effect, 100 complete control)
Procedure, shortened: as §2

soybean [23] = test: Test C postemergence; assay type: in vivo, Glycine max; settings: 10 days, 0 to 100 scale (0 no effect, 100 complete control)
Procedure, shortened: as §1

[24] = 500 g ai/ha, preemergence, 0 to 100 scale (0 no effect, 100 complete control)
[25] = Preemergence, 125 g ai/ha, 0 to 100 scale, 0 no effect, 100 complete control

CC(C)c1ncn(-c2ccc(OS(C)(=O)=O)c(C(=O)N3C[C@H](C)Oc4c(Cl)cccc43)c2)n1 [Compound 338]
Plant response rating, Kochia (kochia [1]; 500 g ai/ha, postemergence): 100 | Plant response rating, Kochia (kochia [1]; Postemergence, 125 g ai/ha): 90 | Ryegrass, Italian plant response rating (ryegrass, Italian [2]; [24]): 100 | Plant response rating, Ryegrass, Italian (ryegrass, Italian [2]; [25]): 90 | Plant response rating, Ragweed (ragweed [3]; 500 g ai/ha, postemergence): 40 | Plant response rating, Ragweed (ragweed [3]; Postemergence, 125 g ai/ha): 30 | Barnyardgrass plant response rating (barnyardgrass [4]; [24]): 100 | Plant response rating, Barnyardgrass (barnyardgrass [4]; [25]): 60 | Oat, Wild plant response rating (oat, wild [5]; [24]): 50 | Plant response rating, Oat, Wild (oat, wild [5]; [25]): 30 | Plant response rating, Ducksalad (Flood) (ducksalad): 40 | Plant response rating, Pigweed, Palmer (pigweed, palmer [6]; 500 g ai/ha, postemergence): 100 | Plant response rating, Pigweed, Palmer (pigweed, palmer [6]; Postemergence, 125 g ai/ha): 90 | Kochia plant response rating (kochia [7]; [24]): 100 | Plant response rating, Kochia (kochia [7]; [25]): 60 | Plant response rating, Blackgrass (blackgrass [8]; 500 g ai/ha, postemergence): 70 | Plant response rating, Blackgrass (blackgrass [8]; Postemergence, 125 g ai/ha): 40 | Ragweed plant response rating (ragweed [9]; [24]): 0 | Plant response rating, Ragweed (ragweed [9]; [25]): 0 | Pigweed, Palmer plant response rating (pigweed, palmer [10]; [24]): 100 | Plant response rating, Pigweed, Palmer (pigweed, palmer [10]; [25]): 100 | Plant response rating, Horseweed (horseweed; 500 g ai/ha, postemergence): 20 | Plant response rating, Horseweed (horseweed; Postemergence, 125 g ai/ha): 10 | Foxtail, Green plant response rating (green foxtail [11]; [24]): 100 | Plant response rating, Foxtail, Green (green foxtail [11]; [25]): 90 | Plant response rating, Galium (galium; 500 g ai/ha, postemergence): 100 | Plant response rating, Galium (galium; Postemergence, 125 g ai/ha): 100 | Plant response rating, Ryegrass, Italian (ryegrass, Italian [12]; 500 g ai/ha, postemergence): 80 | Plant response rating, Ryegrass, Italian (ryegrass, Italian [12]; Postemergence, 125 g ai/ha): 70 | Plant response rating, Rice (Flood) (rice): 10 | Wheat plant response rating (wheat [13]; [24]): 20 | Plant response rating, Wheat (wheat [13]; [25]): 0 | Plant response rating, Oat, Wild (oat, wild [14]; 500 g ai/ha, postemergence): 20 | Plant response rating, Oat, Wild (oat, wild [14]; Postemergence, 125 g ai/ha): 20 | Plant response rating, Barnyardgrass (barnyardgrass [15]; 500 g ai/ha, postemergence): 70 | Plant response rating, Barnyardgrass (barnyardgrass [15]; Postemergence, 125 g ai/ha): 30 | Plant response rating, Wheat (wheat [16]; 500 g ai/ha, postemergence): 40 | Plant response rating, Wheat (wheat [16]; Postemergence, 125 g ai/ha): 20 | Soybean plant response rating (soybean [17]; [24]): 80 | Plant response rating, Soybean (soybean [17]; [25]): 30 | Blackgrass plant response rating (blackgrass [18]; [24]): 80 | Plant response rating, Blackgrass (blackgrass [18]; [25]): 20 | Plant response rating, Corn (corn [19]; 500 g ai/ha, postemergence): 80 | Plant response rating, Corn (corn [19]; Postemergence, 125 g ai/ha): 80 | Plant response rating, Foxtail, Green (green foxtail [20]; 500 g ai/ha, postemergence): 70 | Plant response rating, Foxtail, Green (green foxtail [20]; Postemergence, 125 g ai/ha): 30 | Corn plant response rating (corn [21]; [24]): 50 | Plant response rating, Corn (corn [21]; [25]): 10 | Plant response rating, Barnyardgrass (Flood) (barnyardgrass [22]): 10 | Plant response rating, Sedge, Umbrella (Flood) (sedge, umbrella): 45 | Plant response rating, Soybean (soybean [23]; 500 g ai/ha, postemergence): 100 | Plant response rating, Soybean (soybean [23]; Postemergence, 125 g ai/ha): 100
